What was measured:
[1] = system: oozing ear channel; test: Treatment of the oozing ear channel after tympanoplasty with aqueous 1% NCT solution (case reports); type: in vivo, human; conditions: for time until oozing ceased / complete epithelization achieved earlier than by the conventional treatment with fuchsine / incorporation of the temporal fascia: tympanoplasty
From the text: Rinsing the ear channel with NCT solution provokes in general a drying of the ear channel and the tympanoplastic within 1-2 days.
A human patient with a traumatic perforation of the tympanic membrane was provided with a tympanoplasty. After removing incrustations and granulation tissue, the destroyed tympanic membrane was excised and substituted by a fascia temporalis. After taking away the tamponade, the microbiological culture of a swab from the reconstructed tympanic membrane and the ear channel was sterile. Subsequently, the oozing ear channel was treated one time daily for two days by instillation of 2 mL of aqueous 1% NCT solution. […] The complete epithelization was achieved 3 days earlier than by the conventional treatment with fuchsine.
A human patient suffering from a perforation of the tympanic membrane caused by a chronic inflammation of the middle ear received tympanoplasty. After removing incrustations and granulation tissue, the destroyed tympanic membrane was excised and substituted by a fascia temporalis. After taking away the tamponade, the microbiological culture of a swab from the reconstructed tympanic membrane and the ear channel was sterile. Subsequently, the oozing and swollen ear channel was treated one time daily for five days by instillation of 2 mL of aqueous 1% NCT solution. […] The complete epithelization was achieved 3 days earlier than by the conventional treatment with fuchsine.

[2] = system: open leg ulcer with fibrous coating; test: Treatment of open leg ulcer with fibrous coating with wound dressing soaked with aqueous 1% NCT solution; type: in vivo, human; conditions: Example 3: person, burn accident; dressing soaked with aqueous 1% NCT two times daily
Method: A human patient suffering from an open leg ulcer with fibrous coating caused by a burn accident was treated two times daily with wound dressing soaked with aqueous 1% NCT solution. […] Microbiological cultures of swabs before and after therapy were sterile.

[3] = system: outer ear canal; test: Pilot study (open phase IIa): irrigation of the external auditory canal with 1% NCT after tympanoplasty; type: in vivo, human; conditions: 12 patients
Method: Procedures: Local irrigations of the external auditory canal with 3 ml of 1% N-chlorotaurine solution were performed once daily until the canal was dry.
(§1) Reagents: Pure NCT as a crystalline sodium salt was dissolved in sterile distilled water to a concentration of 1% (55 mM). Purity was verified by iodometric titration and spectrophotometry. […] Solutions were stored at 2-4° C., where they are stable for 1 year, and allowed to reach room temperature before application to the patients.
Study Design: An open phase IIa study was performed in 12 patients after tympanoplasty. They received a single-shot antibiotic therapy with 2 g Spizef (cefotiam) i.v. perioperatively.
All subjects were treated with 1% N-chlorotaurine.
Subjects: The study population included 6 female and 6 male human patients, ranging in age from 32 to 66 years (median 48,1 years). Inclusion criteria was status post tympanoplasty. Exclusion criteria included topical treatment with other agents, systemic application of antibiotics or corticoids, pregnancy, and simultaneous participation in another study. No patients had to be withdrawn after inclusion.
Treatment and Time Course: After removing the ear-tamponade, which remained in place for 2 to 3 weeks postoperatively, 3 ml of the 1% aqueous NCT solution was applied once daily to the outer ear canal. The endpoint of the treatment was defined as a completely dry canal, corresponding to a clinical score of zero (see below for scoring).
Evaluation and Statistical Analysis: The primary criterion for the judgement of the status of the external meatus was a six-scale clinical score (0-5) based on visual observation via ear microscopy (zero=dry outer ear canal; 5=moist outer ear canal with inflammation).
The second criterion was subjective pain, ascertained by a visual analogue scale.
Clinical examination of the outer ear canal was performed daily for detection of moisture, signs of infection, and judgement of epithelisation of the neo-tympanon.
A completely dry external meatus (score zero) was considered as the endpoint criterion for the termination of the study.
Before and at the end of the study an audiogram was performed in all patients.
Moisture and inflammation of the external auditory canal during and after irrigation with NCT were compared to those before treatment using the Wilcoxon test. P-values<0.05 were considered to indicate statistical significance. Due to the limited number of patients no corrections for multiple comparisons were applied.

[4] = pH of aqueous solutions of NCT; type: physicochemical
Method: as §1

[5] = Storage stability of aqueous NCT solutions; type: physicochemical; conditions: 1% (55 mM) aqueous solution stored at 2-4° C.
Method: as §1

[6] = Example 1: person, 2 mL aqueous 1% NCT one time daily for two days
[7] = Example 2: person, 2 mL aqueous 1% NCT one time daily for five days
[8] = 3 ml 1% NCT once daily, score zero = dry outer ear canal

Structure (SMILES): O=S(=O)(O)CCNCl [NCT, N-chlorotaurine]
- time until oozing ceased ([1]; Example 1: person, 2 mL aqueous 1% NCT instilled one time daily for two days): one
- complete epithelization achieved earlier than by the conventional treatment with fuchsine [1, 6]: 3 days
- incorporation of the temporal fascia [1, 6]: proceeded without problems
- time until oozing ceased ([1]; Example 2: person, 2 mL aqueous 1% NCT instilled one time daily for five days): three
- complete epithelization achieved earlier than by the conventional treatment with fuchsine [1, 7]: 3 days
- incorporation of the temporal fascia [1, 7]: proceeded without problems
- drying of the ear channel and the tympanoplastic ([1]; rinsing the ear channel with NCT solution, in general): 1 to 2 days
- healing process [2]: went on without problems
- treatment time until the fibrous coating disappeared [2]: three
- dizziness or nystagmus ([3]; 3 ml 1% NCT once daily): No dizziness or nystagmus occurred
- drying of the outer ear canal ([3]; 3 ml 1% NCT once daily): Rapid drying of the outer ear canal was detected in all patients
- epithelisation of the new tympanon on ear microscopy ([3]; 3 ml 1% NCT once daily): proceeded regularly without granulation
- infection in the postoperative course ([3]; 3 ml 1% NCT once daily): No infection occurred
- time needed for complete epithelisation (mean±SD) ([3]; 3 ml 1% NCT once daily): 22.6 ± 3.5 days
- time needed for complete epithelisation (range) ([3]; 3 ml 1% NCT once daily): 18 to 31 days
- tolerability of treatment ([3]; 3 ml 1% NCT once daily): tolerated very well by all patients
- average clinical score (0-5) of the outer ear canal ([3]; 3 ml 1% NCT once daily, days 2-5 vs. baseline day 1, Wilcoxon test): decreased daily
- necessary time for achieving a score of zero (mean±SD) [3, 8]: 2.75 ± 0.87 days
- necessary time for achieving a score of zero (range) [3, 8]: 2 to 5 days
- subjective pain ([3]; 3 ml 1% NCT once daily, visual analogue scale): without occurrence of any pain
- damage to the inner ear ([3]; audiogram before and after treatment): no signs of damage to the inner ear
- allergic reactions ([3]; whole period of treatment): no signs of allergic reactions
- pH [4]: 8
- stability of solutions on storage [5]: 1 year

From patent US20080207750A1, “Use of N-Chlorotaurine for Treatment of Oozing Tissue Deficiencies” (Pathogenics LLC, priority 2002, published 2008)
